pIC50: −log10 of the molar value.
Assays:
[1] = tested on: endogenous FGF receptors in 3Tc7/EGFr cells; test: FGF-induced BrdU incorporation assay; type: cell-based; conditions: read-out: FGF-Induced BrdU Incorp. IC50
Protocol: The cellular/catalytic assays described herein are performed in an ELISA format. The general procedure is as follows: a compound is introduced to cells expressing the test kinase, either naturally or recombinantly, for a selected period of time after which, if the test kinase is a receptor, a ligand known to activate the receptor is added. The cells are lysed and the lysate is transferred to the wells of an ELISA plate previously coated with a specific antibody recognizing the substrate of the enzymatic phosphorylation reaction. Non-substrate components of the cell lysate are washed away and the amount of phosphorylation on the substrate is detected with an antibody specifically recognizing phosphotyrosine compared with control cells that were not contacted with a test compound. The cellular/biologic assays described herein measure the amount of DNA made in response to activation of a test kinase, which is a general measure of a proliferative response. The general procedure for this assay is as follows: a compound is introduced to cells expressing the test kinase, either naturally or recombinantly, for a selected period of time after which, if the test kinase is a receptor, a ligand known to activate the receptor is added. After incubation at least overnight, a DNA labeling reagent such as Bromodeoxyuridine (BrdU) or 3H-thymidine is added. The amount of labeled DNA is detected with either an anti-BrdU antibody or by measuring radioactivity and is compared to control cells not contacted with a test compound.
FGF-Induced BrdU incorporation Assay
This assay measures FGF-induced DNA synthesis in 3Tc7/EGFr cells that express endogenous FGF receptors.
Materials and Reagents: • 1. FGF: human FGF2/bFGF (Gibco BRL, No. 13256-029). • 2. BrdU Labeling reagent, (10 mM PBS (pH 7.4), Boehringer Mannheim Cat No. 1 647 229). • 3. Fixdenat fixation solution (Boehringer Mannheim Cat No. 1 647 229). • 4. Anti-BrdU-POD (mouse monoclonal antibody conjugated with peroxidase, Boehringer Mannheim Cat. No. 1 647 229). • 5. TMB (tetramethylbenzidine, Boehringer Mannheim Cat. No. 1 647 229). • 6. PBS washing solution, pH 7.4 (Sugen, Inc.). • 7. Albumin, bovine (BSA), fraction V powder (Sigma Chemical Co., Cat. No. A-8551)
Procedure • 1. 3T3 engineered cell line: 3T3c7/EGFr. • 2. Cells are seeded at 8,000 cells/well in DMEM, 10% CS and 2 mM Gln in a 96-well plate. Incubate 24 hours at 37° C. in 5% CO2. • 3. After 24 hours, wash cells with PBS then serum starve in serum free medium (0% DMEM, 0.1% BSA) for 24 hours. • 4. Add ligand (FGF2 (1.5 nM in DMEM with 0.1% BSA) and test compound simultaneously. Negative control wells receive serum free DMEM with 0.1% BSA only, positive control wells receive FGF2 ligand but no test compound. Test compounds are prepared in serum-free DMEM with ligand in a 96-well plate and serially diluted to make seven (7) test concentrations. • 5. After 20 hours, add diluted BrdU labeling reagent (1:100 BrdU:DMEM, 0.1% BSA, final concentration is 10 μM) to the cells and incubate for 1.5 hours. • 6. Decant medium. Remove traces of material with paper towel. Add FixDenat (50 μl/well) and incubate at room temperature for 45 minutes on a plate shaker. • 7. Remove Fixdenat solution. Add blocking solution (5% dehydrated milk in PBS (200 μl/well)) and incubate for 30 minutes at room temperature on a plate shaker. • 8. Decant blocking solution, wash wells once with PBS. Add anti-BrdU-POD solution (1:100 dilution in PBS, 0.1% BSA), incubate for 90 minutes at room temperature on a plate shaker. • 9. Decant antibody conjugate, rinse wells 5 times with PBS. Dry plate by inverting on paper towel and tapping. • 10. Add TMB solution (100 μl/well), incubate 20 minutes at room temperature on a plate shaker until color development is sufficient for photometric detection. • 11. Measure absorbance at 410 nm on a Dynatech ELISA plate reader using “Dual wavelength” mode with a filter at 490 nM. Biochemical EGFR Assay

[2] = tested on: HUV-EC-C cells (VEGF, Flk-1/KDR); test: HUV-EC-C assay, VEGF-stimulated 3H-thymidine incorporation; type: cell-based; conditions: Homo sapiens, read-out: HUVEC-VEGF IC50
Protocol: Repeat the wash two more times with D-PBS, resuspend the cells in-about 1 ml assay medium/15 cm^2 of tissue culture flask. […] Add cells to 96-well flat-bottom plates at 100 μl/well or 0.8-1.0×10^4 cells/well, incubate −24h at 37° C., 5% CO2.
Use the same assay medium as mentioned in day 0, step 2 above. Titrations are made by adding 90 μl/well of test compound at 200 μM (4× the final well concentration) to the top well of a particular plate column. Since the stock test compound is usually 20 mM in DMSO, the 200 μM drug concentration contains 2% DMSO.
A diluent made up to 2% DMSO in assay medium (F12K+0.5% fetal bovine serum) is used as diluent for the test compound titrations in order to dilute the test compound but keep the DMSO concentration constant. Add this diluent to the remaining wells in the column at 60 μl/well. Take 60 μl from the 120 μl of 200 μM test compound dilution in the top well of the column and mix with the 60 μl in the second well of the column. Take 60 μl from this well and mix with the 60 μl in the third well of the column, and so on until two-fold titrations are completed. When the next-to-the-last well is mixed, take 60 μl of the 120 μl in this well and discard it. Leave the last well with 60 μl of DMSO/media diluent as a non-test compound-containing control. […] In triplicate, add 50 μl/well of 80 μg/ml VEGF, 20 ng/ml ECGF, or media control to each test compound condition. As with the test compounds, the growth factor concentrations are 4× the desired final concentration. Use the assay media from day 0 step 2 to make the concentrations of growth factors.
Freeze plates overnight at −20° C.

O=C(O)CCc1c(/C=C2\C(=O)Nc3ccc(Cl)cc32)[nH]c2c1CCCC2 [Example 191, 3-[2-(5-Chloro-2-oxo-1,2-dihydroindol-3-ylidenemethyl)-4,5,6,7-tetrahydro-1H-indol-3-yl]-propionic acid]
pIC50 [1]: 4.63 | pIC50 [2]: 10.40

O=C(O)CCc1c(/C=C2\C(=O)Nc3ccc(Br)cc32)[nH]c2c1CCCC2 [Example 192, 3-[2-(5-Bromo-2-oxo-1,2-dihydroindol-3-ylidenemethyl)-4,5,6,7-tetrahydro-1H-indol-3yl]-propionic acid]
pIC50 [2]: 9.52

Cc1ccc2c(c1)/C(=C/c1[nH]c3c(c1CCC(=O)O)CCCC3)C(=O)N2 [Example 194, 3-[2-(5-Methyl-2-oxo-1,2-dihydroindol-3-ylidenemethyl)-4,5,6,7-tetrahydro-1H-indol-3-yl]-propionic acid]
pIC50 [2]: 9.00

COc1ccc2c(c1)NC(=O)/C2=C\c1[nH]c2c(c1CCC(=O)O)CCCC2 [Example 196, 3-[2-(6-Methoxy-2-oxo-1,2-dihydroindol-3-ylidenemethyl)-4,5,6,7-tetrahydro-1H-indol-3-yl]-propionic acid]
pIC50 [2]: 7.70

CN(C)C(=O)CCc1c(/C=C2\C(=O)Nc3ccccc32)[nH]c2c1CCCC2 [Example 197, N,N-Dimethyl-3-[2-(2-oxo-1,2-dihydroindol-3-ylidenemethyl)-4,5,6,7-tetrahydro-1H-indol-3-yl]-propionamide]
pIC50 [1]: < 4.30 | pIC50 [2]: > 8.52

CN(C)CCCc1c(/C=C2\C(=O)Nc3ccccc32)[nH]c2c1CCCC2 [Example 198, 3-[3-(3-Dimethylaminopropyl)-4,5,6,7-tetrahydro-1H-indol-2-ylmethylene]-1,3-dihydroindol-2-one]
pIC50 [1]: < 4.30

NC(=O)CCc1c(/C=C2\C(=O)Nc3ccccc32)[nH]c2c1CCCC2 [Example 199, 3-[2-(2-Oxo-1,2-dihydroindol-3-ylidenemethyl)-4,5,6,7-tetrahydro-1H-indol-3-yl]-propionamide]
pIC50 [1]: < 4.30 | pIC50 [2]: > 7.52

O=C1Nc2ccccc2/C1=C/c1[nH]c2c(c1CCC(=O)N1CCOCC1)CCCC2 [Example 200, 3-[3-(3-Morpholin-4-yl-3-oxopropyl)-4,5,6,7-tetrahydro-1H-indol-2-ylmethylene]-1,3-dihydroindol-2-one]
pIC50 [1]: < 4.30

CNC(=O)CCc1c(/C=C2\C(=O)Nc3ccccc32)[nH]c2c1CCCC2 [Example 201, N-Methyl-3-[2-(2-oxo-1,2-dihydroindol-3-ylidenemethyl)-4,5,6,7-tetrahydro-1H-indol-3-yl]-propionamide]
pIC50 [1]: < 4.30 | pIC50 [2]: > 7.52

O=C(CCc1c(/C=C2\C(=O)Nc3ccccc32)[nH]c2c1CCCC2)NCCN1CCOCC1 [Example 202, N-(2-Morpholin-4-ylethyl)-3-[2-(2-oxo-1,2-dihydroindol-3-ylidenemethyl)-4,5,6,7-tetrahydro-1H-indol-3-yl]-propionamide]
pIC50 [1]: < 4.30 | pIC50 [2]: > 7.52

Cc1c[nH]c(/C=C2\C(=O)Nc3ccccc32)c1CCC(=O)O [Example 215, 3-[4-Methyl-2-(2-oxo-1,2-dihydroindol-3-ylidenemethyl)-1H-pyrrol-3-yl]-propionic acid]
pIC50 [1]: 4.60

Cc1c[nH]c(/C=C2\C(=O)Nc3ccc(Cl)cc32)c1CCC(=O)O [Example 216, 3-[2-(5-Chloro-2-oxo-1,2-dihydroindol-3-ylidenemethyl)-4-methyl-1H-pyrrol-3-yl]-propionic acid]
pIC50 [2]: > 7.15

COc1ccc2c(c1)NC(=O)/C2=C\c1[nH]cc(C)c1CCC(=O)O [Example 217, 3-[2-(6-Methoxy-2-oxo-1,2-dihydroindol-3-ylidenemethyl)-4-methyl-1H-pyrrol-3-yl]-propionic acid]
pIC50 [1]: < 4.30

Cc1c[nH]c(/C=C2\C(=O)Nc3cccc(C)c32)c1CCC(=O)O [Example 218, 3-[2-(4-Methyl-2-oxo-1,2-dihydroindol-3-ylidenemethyl)-4-methyl-1H-pyrrol-3-yl]-propionic acid]
pIC50 [1]: < 4.30 | pIC50 [2]: > 7.15

Cc1c[nH]c(/C=C2\C(=O)Nc3ccc(Br)cc32)c1CCC(=O)O [Example 220, 3-[2-(5-Bromo-2-oxo-1,2-dihydroindol-3-ylidenemethyl)-4-methyl-1H-pyrrol-3-yl]-propionic acid]
pIC50 [1]: < 4.30 | pIC50 [2]: 7.40
